Values after ≈ are worked out from the molar mass of the structure shown. Like-named read-outs stand apart in the source and are kept apart here.
How the values were obtained:
Format in all cases: cell-based
[1] = system: Clostridioides difficile ATCC 43255; experiment: MIC determination using broth microdilution method, anaerobic bacteria; conditions: for MIC: ATCC43255, Clostridioides difficile ATCC 43255, broth microdilution, anaerobic, 37° C., 48 h
Description: 0.10 g of sterile cycloserine and 3.20 mg of sterile cefoxitin (filtered by a filter membrane and sterilized) were added to every 200 mL, mixed well, and poured into a sterile petri dish for later use.
S3, culture of Clostridioides difficile strain: 1) the strain stored at −80° C. was resuscitated in an anaerobic glove box with a cycloserine-cefoxitin-fructose agar medium plate, and statically cultured at 37° C. in a constant-temperature incubator for 48 h; • 2) single colonies were picked, and statically cultured in the brain heart infusion broth medium overnight at 37° C. in the constant-temperature incubator; and • 3) the bacterial solution that was statically cultured overnight was transferred into the anaerobic glove box with the brain heart infusion broth medium at a ratio of 1:100, and cultured for 3-4 h until the OD600 was between 0.6 and 0.8; and during this process, 5 g/L of yeast extract solution was added to increase a strain concentration.
(§1) The culture process of the strain was operated in the anaerobic glove box. After the operation was completed, the strain was well sealed with an anaerobic bag or an anaerobic box, taken out and then cultured in the constant-temperature incubator.

[2] = system: Bacteroides fragilis ATCC 25285; experiment: as above
Description: as §1

H. pylori ATCC 26695 = experiment: MIC determination using broth microdilution method, Helicobacter pylori
Description: (§2) • 1) A frozen solution stored at −80° C. was taken out, and thawed at room temperature; 100 μL of bacterial solution was taken with a pipette, coated onto a Columbia blood agar plate (finished-product medium), put invertedly in a […] culture box, placed in a micro-aerobic gas production bag to achieve a micro-aerobic environment, and cultured at 37° C. for 2-3 days. • 2) A sterile inoculation ring was used to pick Helicobacter pylori single colonies (transparent water droplets) grown on the Colombian blood agar medium and inoculated in the above liquid medium; and cultured at 37° C. in a micro-aerobic environment for 3 days. • 3) A required concentration (absorbance) for the experiment was reached after culture, and the bacterial solution was taken for subsequent experiments.
(§3) The drug concentration at which bacteria ceased to grow or grew at the most significant reduction level was referred to as the MIC value.

H. pylori ATCC 43504 = experiment: as above; conditions: for MIC: Helicobacter pylori, ATCC43504; for inhibitory activity against drug-resistant bacteria, in words: metronidazole-resistant H. pylori ATCC 43504, versus metronidazole
Description: as §2, §3

H. pylori NCTC 11637 = experiment: as above; conditions: for MIC: Helicobacter pylori, NCTC11637; for inhibitory activity against drug-resistant bacteria, in words: metronidazole-resistant H. pylori NCTC 11637, versus metronidazole
Description: as §2, §3

[3] = system: H. pylori Sydney strain SS1; experiment: as above
Description: as §2, §3

[4] = system: Porphyromonas gingivalis ATCC 33277; experiment: MIC determination using broth microdilution method, anaerobic bacteria
Description: S5, Culture of Porphyromonas gingivalis strain: • the strain stored at −80° C. was resuscitated in the anaerobic glove box with a Colombian blood agar plate, and statically cultured at 37° C. in the constant-temperature incubator for 5-7 days.
as §1

[5] = ATCC25285, Bacteroides fragilis ATCC 25285, broth microdilution, anaerobic, 37° C., 48 h, read-out: MIC
[6] = ATCC26695, H. pylori ATCC 26695(S), metronidazole-susceptible strain, read-out: MIC
[7] = H. pylori ATCC 43504(R), metronidazole-resistant strain, read-out: MIC
[8] = H. pylori NCTC 11637(R), metronidazole-resistant strain, read-out: MIC
[9] = H. pylori Sydney strain SS1, read-out: MIC
[10] = ATCC33277, Porphyromonas gingivalis ATCC 33277, broth microdilution, anaerobic, 37° C., 48 h, read-out: MIC

SMILES | MIC [1] [µg/mL] | MIC ([2]; Bacteroides fragilis, ATCC25285, 48 h) [µg/mL] | MIC (H. pylori ATCC 26695; ATCC26695) [µg/mL] | MIC (H. pylori ATCC 43504) [µg/mL] | MIC (H. pylori NCTC 11637) [µg/mL] | MIC [3] [µg/mL] | MIC ([4]; Porphyromonas gingivalis, ATCC33277, 48 h) [µg/mL] | inhibitory effect on Clostridioides difficile (ATCC 43255), in words ([1]; comment on Table 1) | MIC [2, 5] [µg/mL] | MIC (H. pylori ATCC 26695; [6]) [µg/mL] | MIC (H. pylori ATCC 43504; [7]) [µg/mL] | inhibitory activity against drug-resistant bacteria, in words (H. pylori ATCC 43504) | MIC (H. pylori NCTC 11637; [8]) [µg/mL] | inhibitory activity against drug-resistant bacteria, in words (H. pylori NCTC 11637) | MIC [3, 9] [µg/mL] | MIC [4, 10] [µg/mL]
Cc1ncc([N+](=O)[O-])n1CCOC(=O)CC[C@@H](C)[C@H]1CC[C@H]2[C@@H]3CC[C@@H]4C[C@H](O)CC[C@]4(C)[C@H]3CC[C@]12C [SCUT1-1] | 0.5 (≈ 0.944 µM) | 1 (≈ 1.89 µM) | 8 (≈ 15.1 µM) | > 128 | 16 (≈ 30.2 µM) | 8 (≈ 15.1 µM) | 2 (≈ 3.78 µM) | – | – | – | – | – | – | – | – | –
Cc1ncc([N+](=O)[O-])n1CCOC(=O)CC[C@@H](C)[C@H]1CC[C@H]2[C@@H]3[C@H](O)C[C@@H]4C[C@H](O)CC[C@]4(C)[C@H]3CC[C@]12C [SCUT1-3] | 0.12 (≈ 0.22 µM) | – | – | – | – | – | – | particularly prominent | 4 (≈ 7.33 µM) | 4 (≈ 7.33 µM) | 4 (≈ 7.33 µM) | significantly promoted | 8 (≈ 14.7 µM) | significantly promoted | 8 (≈ 14.7 µM) | 0.5 (≈ 0.916 µM)
Cc1ncc([N+](=O)[O-])n1CCOC(=O)CC[C@@H](C)[C@H]1CC[C@H]2[C@@H]3C[C@H](O)[C@@H]4C[C@H](O)CC[C@]4(C)[C@H]3CC[C@]12C [SCUT1-5] | 0.25 (≈ 0.458 µM) | – | – | – | – | – | – | – | 2 (≈ 3.66 µM) | 8 (≈ 14.7 µM) | 4 (≈ 7.33 µM) | – | 32 (≈ 58.6 µM) | – | 16 (≈ 29.3 µM) | 2 (≈ 3.66 µM)
C[C@H](CCC(=O)O)[C@H]1CC[C@H]2[C@@H]3[C@H](O)[C@H](O)[C@@H]4C[C@H](O)CC[C@]4(C)[C@H]3CC[C@]12C [HCA, hyocholic acid, reference compound] | 32 (≈ 78.3 µM) | – | – | – | – | – | – | – | > 32 | – | – | – | – | – | – | > 32
Cc1ncc([N+](=O)[O-])n1CCOC(=O)CC[C@@H](C)[C@H]1CC[C@H]2[C@@H]3C(=O)C[C@@H]4C[C@H](O)CC[C@]4(C)[C@H]3C[C@H](O)[C@]12C [SCUT1-8] | 1 (≈ 1.79 µM) | – | – | – | – | – | – | – | 1 (≈ 1.79 µM) | 8 (≈ 14.3 µM) | 16 (≈ 28.6 µM) | – | 64 (≈ 114 µM) | – | 8 (≈ 14.3 µM) | 1 (≈ 1.79 µM)
Cc1ncc([N+](=O)[O-])n1CCOC(=O)CC[C@@H](C)[C@H]1CC[C@H]2[C@@H]3[C@H](O)C[C@H]4C[C@H](O)CC[C@]4(C)[C@H]3CC[C@]12C [SCUT1-4] | 2 (≈ 3.66 µM) | – | – | – | – | – | – | – | 2 (≈ 3.66 µM) | 4 (≈ 7.33 µM) | 4 (≈ 7.33 µM) | significantly promoted | 4 (≈ 7.33 µM) | significantly promoted | 4 (≈ 7.33 µM) | 0.5 (≈ 0.916 µM)
C[C@H](CCC(=O)O)[C@H]1CC[C@H]2[C@@H]3[C@H](O)C[C@@H]4C[C@H](O)CC[C@]4(C)[C@H]3CC[C@]12C [CDCA, chenodeoxycholic acid, reference compound] | 8 (≈ 20.4 µM) | – | – | – | – | – | – | – | > 32 | – | – | – | – | – | – | > 32

Reference: patent US20260199482A1, “BILE ACID-METRONIDAZOLE CONJUGATE AND USE THEREOF” (SOUTH CHINA UNIVERSITY OF TECHNOLOGY, priority 2022, published 2026)
